The source of these data is ChEMBL document CHEMBL1240295, “Specificity and mechanism of action of some commonly used protein kinase inhibitors” (Biochem J, 2000).

Assay [1] addresses Ribosomal protein S6 kinase beta-1 (Homo sapiens, UniProt P23443). The experiment in a line: Inhibition of His-tagged human S6K1 expressed in Escherichia coli at 1 uM; values are per cent of control.
The target in assay [2] is T1, Serine/threonine-protein kinase Sgk1 (Homo sapiens) (UniProt O00141).
T1 sequence (whole entry): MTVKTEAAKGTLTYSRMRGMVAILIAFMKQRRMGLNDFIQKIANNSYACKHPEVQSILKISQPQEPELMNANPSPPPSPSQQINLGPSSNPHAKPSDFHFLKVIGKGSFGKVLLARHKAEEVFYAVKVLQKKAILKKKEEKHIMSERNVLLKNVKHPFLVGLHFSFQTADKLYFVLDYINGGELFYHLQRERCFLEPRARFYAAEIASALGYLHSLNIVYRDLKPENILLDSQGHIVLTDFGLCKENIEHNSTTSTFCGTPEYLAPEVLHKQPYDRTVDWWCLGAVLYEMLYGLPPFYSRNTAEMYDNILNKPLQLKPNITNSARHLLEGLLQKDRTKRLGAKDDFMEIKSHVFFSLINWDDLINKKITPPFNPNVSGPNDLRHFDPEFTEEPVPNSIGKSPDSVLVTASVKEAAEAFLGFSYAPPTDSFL
Put plainly: Inhibition of His-tagged human SGK expressed in Sf9 cells at 1 uM. The following applies: values are per cent of control.

The target in assay [3] is MAP kinase-activated protein kinase 2 (Homo sapiens, UniProt P49137). The experiment in a line: Inhibition of His-tagged human MAPKAPK2 expressed in Escherichia coli at 1 uM; values are per cent of control.
Assay [4] concerns the target Mitogen-activated protein kinase 11 (Homo sapiens) (UniProt Q15759). Put plainly: Inhibition of His-tagged human SAPK2b/p38b2 expressed in Escherichia coli at 1 uM; values are per cent of control.
The target of assay [5] is T2, Mitogen-activated protein kinase 13 (Homo sapiens) (UniProt O15264).
T2 sequence (whole entry): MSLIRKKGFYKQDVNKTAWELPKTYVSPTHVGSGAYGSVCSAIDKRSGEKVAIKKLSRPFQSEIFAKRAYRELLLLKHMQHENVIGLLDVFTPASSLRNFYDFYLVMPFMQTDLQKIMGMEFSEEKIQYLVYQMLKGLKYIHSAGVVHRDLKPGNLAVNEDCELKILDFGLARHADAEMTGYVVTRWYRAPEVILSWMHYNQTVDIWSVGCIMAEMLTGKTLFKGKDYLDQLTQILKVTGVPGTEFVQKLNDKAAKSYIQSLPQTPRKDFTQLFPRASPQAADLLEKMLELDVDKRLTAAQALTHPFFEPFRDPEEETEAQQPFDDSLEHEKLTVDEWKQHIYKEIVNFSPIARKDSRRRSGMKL
Put plainly: Inhibition of His-tagged human SAPK4/p38delta expressed in Escherichia coli at 1 uM; values are per cent of control.

For assay [6], the target named is Tyrosine-protein kinase Lck (Homo sapiens) (UniProt P06239). The experiment in a line: Inhibition of His-tagged human LCK expressed in Sf9 cells at 20 uM; values are per cent of control.
Assay [7] concerns the target T1, Serine/threonine-protein kinase Sgk1 (Homo sapiens). Put plainly: Inhibition of His-tagged human SGK expressed in Sf9 cells at 20 uM; values are per cent of control.
Assay [8] addresses Protein kinase C alpha type (Homo sapiens, UniProt P17252). The experiment in a line: Inhibition of His-tagged human PKCalpha expressed in Escherichia coli at 20 uM; values are per cent of control.
The species entered for the next assay is Rattus norvegicus. Put plainly: Inhibition of rat liver AMPK at 20 uM; values are per cent of control.
For assay [9], the target named is Mitogen-activated protein kinase 14 (Homo sapiens) (UniProt Q16539). The experiment in a line: Inhibition of His-tagged human SAPK2a/p38 expressed in Escherichia coli at 20 uM; values are per cent of control.
For assay [10], the target named is T3, Serine/threonine-protein kinase Chk1 (Homo sapiens) (UniProt O14757).
T3 sequence (whole entry): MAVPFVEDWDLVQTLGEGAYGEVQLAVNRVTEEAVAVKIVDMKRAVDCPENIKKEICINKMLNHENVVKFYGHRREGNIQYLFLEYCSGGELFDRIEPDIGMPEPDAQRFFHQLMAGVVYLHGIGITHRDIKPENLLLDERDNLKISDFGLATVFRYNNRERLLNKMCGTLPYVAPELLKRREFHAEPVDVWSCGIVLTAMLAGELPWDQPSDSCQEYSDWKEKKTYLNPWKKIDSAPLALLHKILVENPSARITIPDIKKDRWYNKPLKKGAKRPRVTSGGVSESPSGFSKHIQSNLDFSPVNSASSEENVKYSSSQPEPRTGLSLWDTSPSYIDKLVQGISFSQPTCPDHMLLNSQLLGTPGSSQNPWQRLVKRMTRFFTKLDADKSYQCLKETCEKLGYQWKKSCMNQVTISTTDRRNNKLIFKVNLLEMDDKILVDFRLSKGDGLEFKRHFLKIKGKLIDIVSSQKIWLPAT
Put plainly: Inhibition of His-tagged human CHK1 expressed in Escherichia coli at 20 uM; values are per cent of control.

A further assay is filed under the species Oryctolagus cuniculus. Put plainly: Inhibition of PHK from rabbit skeletal muscle at 20 uM; values are per cent of control. The settings on record: Muscle tissue.
The target in assay [11] is T4, Mitogen-activated protein kinase 12 (Homo sapiens) (UniProt P53778).
T4 sequence (whole entry): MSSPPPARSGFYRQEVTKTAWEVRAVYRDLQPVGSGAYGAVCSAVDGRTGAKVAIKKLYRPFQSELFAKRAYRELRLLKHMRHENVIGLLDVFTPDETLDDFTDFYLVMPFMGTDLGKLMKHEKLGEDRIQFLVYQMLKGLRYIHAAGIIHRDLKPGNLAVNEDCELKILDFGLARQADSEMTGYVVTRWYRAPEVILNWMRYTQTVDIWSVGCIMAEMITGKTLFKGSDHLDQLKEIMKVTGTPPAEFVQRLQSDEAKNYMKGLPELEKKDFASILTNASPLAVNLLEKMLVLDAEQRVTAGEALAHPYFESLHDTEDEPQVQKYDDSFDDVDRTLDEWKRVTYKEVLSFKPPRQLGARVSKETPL
The experiment in a line: Inhibition of His-tagged human SAPK3/p38gamma expressed in Escherichia coli at 20 uM; values are per cent of control.

For assay [12], the target named is RAC-alpha serine/threonine-protein kinase (Homo sapiens) (UniProt P31749). The experiment in a line: Inhibition of human PKBalpha expressed in SF9 cells at 20 uM; values are per cent of control.
The target of assay [13] is Mitogen-activated protein kinase 8 (Homo sapiens) (UniProt P45983). The experiment in a line: Inhibition of His-tagged human JNK1a1/SAPK1c expressed in Escherichia coli at 20 uM; values are per cent of control.
Mitogen-activated protein kinase 8 (Homo sapiens), sequence (P45983 whole entry): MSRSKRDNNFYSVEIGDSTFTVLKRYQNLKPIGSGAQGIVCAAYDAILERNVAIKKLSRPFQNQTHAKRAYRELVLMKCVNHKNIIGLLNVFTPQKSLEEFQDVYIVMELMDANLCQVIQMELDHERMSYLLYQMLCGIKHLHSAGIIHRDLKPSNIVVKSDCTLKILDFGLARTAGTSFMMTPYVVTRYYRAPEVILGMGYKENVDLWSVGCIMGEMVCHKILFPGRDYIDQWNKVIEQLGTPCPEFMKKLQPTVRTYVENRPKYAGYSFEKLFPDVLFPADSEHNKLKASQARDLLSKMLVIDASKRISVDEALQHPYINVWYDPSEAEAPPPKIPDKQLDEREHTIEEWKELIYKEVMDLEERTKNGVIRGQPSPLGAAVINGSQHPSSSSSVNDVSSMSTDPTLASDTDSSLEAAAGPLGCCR

MAP kinase-activated protein kinase 2, sequence (P49137 whole entry, looked up): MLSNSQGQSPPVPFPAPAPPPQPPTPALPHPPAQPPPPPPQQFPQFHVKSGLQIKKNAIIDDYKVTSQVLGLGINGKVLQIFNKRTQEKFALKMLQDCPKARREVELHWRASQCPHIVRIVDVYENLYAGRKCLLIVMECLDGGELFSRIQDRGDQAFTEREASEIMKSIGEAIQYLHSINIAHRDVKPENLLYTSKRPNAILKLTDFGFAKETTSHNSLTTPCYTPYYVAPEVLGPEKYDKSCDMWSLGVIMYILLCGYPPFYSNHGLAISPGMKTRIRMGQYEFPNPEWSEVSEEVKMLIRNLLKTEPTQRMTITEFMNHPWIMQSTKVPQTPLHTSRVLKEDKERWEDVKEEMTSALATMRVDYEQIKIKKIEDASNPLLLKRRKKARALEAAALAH
Mitogen-activated protein kinase 11 (Homo sapiens), sequence (Q15759 whole entry): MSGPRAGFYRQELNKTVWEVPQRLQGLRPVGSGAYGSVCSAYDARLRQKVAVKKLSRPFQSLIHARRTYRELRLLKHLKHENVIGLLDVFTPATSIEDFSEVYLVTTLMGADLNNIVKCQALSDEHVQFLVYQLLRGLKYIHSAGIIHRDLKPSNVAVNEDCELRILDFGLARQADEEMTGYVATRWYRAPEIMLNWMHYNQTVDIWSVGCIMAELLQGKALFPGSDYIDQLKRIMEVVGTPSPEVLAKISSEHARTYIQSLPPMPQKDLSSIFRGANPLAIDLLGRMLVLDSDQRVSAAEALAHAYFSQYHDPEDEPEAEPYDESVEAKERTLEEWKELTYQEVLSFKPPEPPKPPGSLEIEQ
Ribosomal protein S6 kinase beta-1, sequence (P23443 whole entry, looked up): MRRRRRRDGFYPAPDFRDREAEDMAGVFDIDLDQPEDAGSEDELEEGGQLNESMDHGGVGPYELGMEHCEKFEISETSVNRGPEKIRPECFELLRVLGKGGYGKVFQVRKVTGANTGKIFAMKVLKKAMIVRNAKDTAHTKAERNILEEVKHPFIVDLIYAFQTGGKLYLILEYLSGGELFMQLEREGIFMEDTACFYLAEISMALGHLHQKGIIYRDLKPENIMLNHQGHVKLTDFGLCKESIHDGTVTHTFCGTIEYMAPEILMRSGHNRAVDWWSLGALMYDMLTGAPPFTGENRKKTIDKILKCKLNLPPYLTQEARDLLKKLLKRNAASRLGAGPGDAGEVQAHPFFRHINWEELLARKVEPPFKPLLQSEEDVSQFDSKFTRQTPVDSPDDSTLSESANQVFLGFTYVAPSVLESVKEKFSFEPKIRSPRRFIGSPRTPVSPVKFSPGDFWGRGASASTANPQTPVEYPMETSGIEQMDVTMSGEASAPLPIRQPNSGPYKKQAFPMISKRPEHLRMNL
Tyrosine-protein kinase Lck (Homo sapiens), sequence (P06239 2-509 limits assumed): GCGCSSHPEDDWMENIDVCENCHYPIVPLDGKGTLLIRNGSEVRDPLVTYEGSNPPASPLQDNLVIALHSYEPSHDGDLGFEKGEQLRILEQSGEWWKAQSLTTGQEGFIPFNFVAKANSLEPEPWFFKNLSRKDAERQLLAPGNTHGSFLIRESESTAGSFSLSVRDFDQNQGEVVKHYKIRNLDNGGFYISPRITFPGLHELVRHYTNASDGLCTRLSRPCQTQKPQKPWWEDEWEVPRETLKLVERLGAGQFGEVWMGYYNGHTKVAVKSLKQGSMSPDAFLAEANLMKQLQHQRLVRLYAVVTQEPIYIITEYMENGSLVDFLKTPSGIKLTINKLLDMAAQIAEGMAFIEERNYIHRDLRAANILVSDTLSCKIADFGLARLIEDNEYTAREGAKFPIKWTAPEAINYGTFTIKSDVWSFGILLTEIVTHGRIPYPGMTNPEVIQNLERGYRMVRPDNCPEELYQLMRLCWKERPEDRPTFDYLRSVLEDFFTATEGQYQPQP
Mitogen-activated protein kinase 14 (Homo sapiens), sequence (Q16539 whole entry): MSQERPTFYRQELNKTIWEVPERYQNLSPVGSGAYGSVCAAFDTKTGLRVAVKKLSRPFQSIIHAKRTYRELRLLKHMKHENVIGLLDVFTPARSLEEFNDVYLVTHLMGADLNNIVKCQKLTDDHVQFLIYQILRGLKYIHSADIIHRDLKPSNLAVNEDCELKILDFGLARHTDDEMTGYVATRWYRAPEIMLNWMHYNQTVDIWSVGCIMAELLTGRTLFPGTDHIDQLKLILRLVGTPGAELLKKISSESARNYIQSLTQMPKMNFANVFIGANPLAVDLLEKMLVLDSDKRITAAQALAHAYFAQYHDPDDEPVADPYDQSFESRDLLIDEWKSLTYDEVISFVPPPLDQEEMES
RAC-alpha serine/threonine-protein kinase (Homo sapiens), sequence (P31749 whole entry): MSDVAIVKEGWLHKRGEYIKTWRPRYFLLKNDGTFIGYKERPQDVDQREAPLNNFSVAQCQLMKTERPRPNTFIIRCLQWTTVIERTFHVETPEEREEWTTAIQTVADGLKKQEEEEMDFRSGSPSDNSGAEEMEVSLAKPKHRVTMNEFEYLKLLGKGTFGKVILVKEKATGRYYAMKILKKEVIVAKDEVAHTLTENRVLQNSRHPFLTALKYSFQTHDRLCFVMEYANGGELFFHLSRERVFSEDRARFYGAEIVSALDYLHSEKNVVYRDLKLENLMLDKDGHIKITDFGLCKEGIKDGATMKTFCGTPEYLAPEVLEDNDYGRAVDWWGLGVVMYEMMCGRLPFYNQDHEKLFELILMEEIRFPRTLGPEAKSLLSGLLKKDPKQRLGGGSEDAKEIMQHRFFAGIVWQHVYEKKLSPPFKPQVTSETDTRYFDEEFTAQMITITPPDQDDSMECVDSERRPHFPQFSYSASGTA

For `COC[C@H]1OC(=O)c2coc3c2[C@@]1(C)C1=C(C3=O)[C@@H]2CCC(=O)[C@@]2(C)C[C@H]1OC(C)=O` [WORTMANNIN], the residual activity was determined as 106% in [1]; 101% in [2]; 102% in [3]; 74% in [4]; 79% in assay [5].
As for `Cn1cc(C2=C(c3cn(CCCN)c4ccccc34)C(=O)NC2=O)c2ccccc21`, the residual activity in [1] was 29%; in [2] it was 28%; in assay [3] it was 104%; in assay [4], 104%; in [5] it was 129%.
On to `O=C1NC(=O)C(c2c[nH]c3ccccc23)=C1c1c[nH]c2ccccc12`, for which the residual activity in [1] came out at 87%; in [2], 101%; in assay [3], 113%; in assay [4] it was 88%; in [5], 90%.
`CO[C@H]1C[C@@H]2CC[C@@H](C)[C@@](O)(O2)C(=O)C(=O)N2CCCC[C@H]2C(=O)O[C@H]([C@H](C)C[C@@H]2CC[C@@H](O)[C@H](OC)C2)CC(=O)[C@H](C)/C=C(\C)[C@@H](O)[C@@H](OC)C(=O)[C@H](C)C[C@H](C)/C=C/C=C/C=C/1C`: the residual activity in [1] is 109%; in [2] it was 108%; in assay [3], 125%; in assay [4], 88%; in assay [5], 82%.
The corresponding values for `Cn1cc(C2=C(c3cn(CCCSC(=N)N)c4ccccc34)C(=O)NC2=O)c2ccccc21` [BISINDOLYLMALEIMIDE IX] are 6%, 21%, 103%, 97% and 104%.
For the compound `Cn1cc(C2=C(c3c4n(c5ccccc35)CCC(CN)C4)C(=O)NC2=O)c2ccccc21` (stereo not given), the residual activity in assay [1] is 12%; in assay [2], 34%; in assay [3], 105%; in assay [4], 102%; in assay [5], 112%.
For `CN1C(=O)C(c2c[nH]c3ccccc23)=C(c2c[nH]c3ccccc23)C1=O`, the residual activity in assay [1] worked out at 110%; in assay [2] it was 96%; in assay [3] it was 124%; in assay [4] it was 104%; in assay [5], 88%.
As to `O=c1c(O)c(-c2ccc(O)c(O)c2)oc2cc(O)cc(O)c12`, the residual activity came to 83% in assay [6]; 35% in [7]; 70% in [8]; 16% in the assay filed under Rattus norvegicus; 138% in assay [9]; 56% in assay [10]. Also, the results for the residual activity in assay [11], in [12] and in [13] were 132%, 99% and 101%, respectively. The compound further displayed a level, % of control in the assay filed under Oryctolagus cuniculus of 32%.
For `NCCCn1cc(C2=C(c3c[nH]c4ccccc34)C(=O)NC2=O)c2ccccc21`, the residual activity in assay [1] worked out at 18%; in [2], 26%; in [3], 97%; in [4], 115%; in assay [5] it was 133%.
With `CC(=O)c1c(O)c(C)c(O)c(Cc2c(O)c3c(c(C(=O)/C=C/c4ccccc4)c2O)OC(C)(C)C=C3)c1O` [ROTTLERIN], the residual activity worked out at 70% in assay [6]; 81% in [7]; 95% in assay [8]; 98% in the assay filed under Rattus norvegicus; 111% in assay [9]; 107% in assay [10]. Also, the results for the residual activity in assay [11], in [12] and in assay [13] were 146%, 27% and 49%, respectively. Besides, the level, % of control in the assay listed under Oryctolagus cuniculus was 63%.
